Measured values: patent US9176124B2, “Method for measurement of equol in biological sample by immunoassay, kit for the measurement, and method for determination of equol production ability of subject” (OTSUKA PHARMACEUTICAL CO., LTD., priority 2009, dated 2015)

Assays:
[1] = tested on: anti-equol rabbit antiserum (primary antibody); test: Cross-reactivity of the primary antibody by competitive ELISA (Test Example 2); assay type: binding; details: (IC20 of S-equol/IC20 of each isoflavone, etc.)×100, S-equol assumed 100%, horseradish peroxidase-labeled S-equol as labeled antigen, samples in 100% charcoal-treated human serum
Excerpt: The above cross-reactivity can be explained as follows. Specifically, the above cross-reactivity indicates a ratio (%) of the concentration (IC20) of unlabeled S-equol at which the binding reaction of labeled S-equol to the anti-equol antibody can be inhibited by 20%, to the concentration (IC20) of each isoflavone and the like at which the binding reaction of labeled S-equol to the anti-equol antibody can be inhibited by 20%. More specifically, in the competitive reaction between labeled S-equol and unlabeled S-equol, the concentration of unlabeled S-equol at which the binding of labeled S-equol to the antibody is 80 is determined, assuming that the binding of labeled S-equol alone to the antibody is 100. Similarly, each unlabeled isoflavone and the like are competitively reacted with labeled S-equol, and the concentration of each isoflavone and the like at which binding of labeled S-equol to the antibody is 80 is determined.
The thus-determined ratio (expressed in percentage) between the concentration (IC20) of the unlabeled S-equol and the concentration (IC20) of each isoflavone and the like is referred to as the cross-reactivity. This is represented by the following formula: Cross-reactivity (%)=(IC20 of S-equol/IC20 of each isoflavone, etc.)×100
Herein, the cross-reactivity rate is determined by competitive ELISA, using S-equol as the standard antigen used for the preparation of a standard curve, as well as the labeled antigen that competes with equol in a biological sample.
In this Test Example, the cross-reactivity of the primary antibody was examined for the case where competitive ELISA was employed and S-equol was used as both the standard antigen and the labeled antigen. Specifically, the cross-reactivity was examined as follows.
Each of the isoflavones and the like shown in the later-described Table 4 was dissolved in 100% charcoal-treated human serum, and the resulting solution was used as a sample.
An anti-equol rabbit antiserum was used as the primary antibody, as in Example 1. The antiserum was suitably diluted with the later-described antiserum dilution buffer, and used in the test.
A goat anti-rabbit IgG antibody was used as a secondary antibody, as in Example 1. The antibody was immobilized to a solid phase as in Example 1, thus preparing a plate containing immobilized goat anti-rabbit IgG antibody.
Horseradish peroxidase-labeled S-equol was used as a labeled antigen, as in Example 1.
S-equol was used as a standard antigen, as in Example 1. Note that a standard equol solution in the forth of a mixed solution of S-equol (0, 30, 90, 270, or 810 ng/mL) and 100% charcoal-treated human serum was used.
A concentration dilution series was prepared for each of the isoflavones and the like, and for unlabeled S-equol. The adsorption by each of the isoflavones and the like, and the adsorption by unlabeled S-equol in the competitive reaction were measured from when the concentrations of these substances were 0 to when the concentrations of these substances were added in excess amounts. Each of the thus-obtained measured values was checked against a standard curve obtained from the dilution series of the standard antigen (S-equol), so as to compare the inhibition of the reaction based on each calculated value. Thereby, the concentration (IC20) of each of the isoflavones and the like, as well as the concentration (IC20) of unlabeled S-equol, at which the binding reaction of labeled S-equol to the anti-equol antibody is inhibited by 20%, were determined.
The competitive reaction was performed using competitive ELISA by a procedure similar to that in Example 1. Further, horseradish peroxidase was used as a labeling substance.
The ratio (expressed in percentage) of the thus-obtained concentration of each of the isoflavones and the like to the thus-obtained concentration of unlabeled S-equol was regarded as the cross-reactivity. […]

Labmaster Equol TR-FIA [2] = details: heretofore known kit; cited from earlier work
Labmaster Equol TR-FIA [3] = test: Cross-reactivity of the known kit Labmaster Equol TR-FIA; assay type: binding; details: with daidzein
Excerpt: Further, for example, when Labmaster Equol TR-FIA, which is a heretofore known kit manufactured by Labmaster, is used, the cross-reactivity rate with daidzein is 0.8% (see labmaster.fi/products/tr-fia-kitS-equol-tr-fia.htm), and the cross-reactivity of the kit is 10 times as high as that of the present kit.

monoclonal antibody = details: Clinical Chemistry 53: 748-756, 2007; cited from earlier work

SMILES | Cross-reactivity Rate [1] [%] | other results
O=C1c2ccc(O)cc2OCC1c1ccc(O)cc1 (centres unmarked) [Dihydrodaizein] | 1.03 | Cross-reactivity Rate ([1]; listed as dihydrodaidzein): 1.03%; Cross-reactivity Rate (Labmaster Equol TR-FIA [2]): 4.0%
COc1ccc(-c2coc3cc(O)cc(O)c3c2=O)cc1 [Biochanin A] | 0.11 | 
COc1cc2c(=O)c(-c3ccc(O)cc3)coc2cc1O[C@@H]1O[C@H](CO)[C@@H](O)[C@H](O)[C@H]1O [Glycitin] | 0.02 | 
O=c1c(-c2ccc(O)cc2)coc2cc(O[C@@H]3O[C@H](CO)[C@@H](O)[C@H](O)[C@H]3O)cc(O)c12 [Genistin] | 0.06 | 
COc1cc2c(=O)c(-c3ccc(O)cc3)coc2cc1O [Glycitein] | 0.03 | 
O=c1cc(-c2ccc(O)c(O)c2)oc2cc(O)cc(O)c12 [Luteolin] | 0.00 | 
O=c1c(-c2ccc(O)cc2)coc2cc(O[C@@H]3O[C@H](CO)[C@@H](O)[C@H](O)[C@H]3O)ccc12 [Daidzin] | 0.06 | Cross-reactivity Rate ([1]; listed as daidzin): 0.06%
Oc1ccc(C2=Cc3ccc(O)cc3OC2)cc1 [Dehydroequol] | 0.33 | Cross-reactivity Rate ([1]; listed as dehydroequol): 0.33%; Cross-reactivity Rate (Labmaster Equol TR-FIA [2]): 42.3%
O=c1c(-c2ccc(O)cc2)coc2cc(O)ccc12 [Daidzein] | 0.08 | Cross-reactivity Rate ([1]; listed as daidzein): 0.08%; cross-reactivity of the Labmaster kit relative to the present kit (Labmaster Equol TR-FIA [3]): 10 times; Cross-reactivity Rate (Labmaster Equol TR-FIA [2]): 0.8%; Cross-reactivity Rate (monoclonal antibody): < 0.04%
Oc1ccc([C@@H]2COc3cc(O)ccc3C2)cc1 [R-Equol] | 13.24 | Cross-reactivity Rate ([1]; listed as R-equol): 13.24%
O=c1cc(-c2ccc(O)cc2)oc2cc(O)cc(O)c12 [Apigenin] | 0.00 | 
O=c1c(-c2ccc(O)cc2)coc2cc(O)cc(O)c12 [Genistein] | 0.05 | 
Oc1ccc([C@H]2COc3cc(O)ccc3C2)cc1 [S-Equol] | 100.00 | 
